Assay results: US6759384B1, “Factor Xa inhibitors” (Aventis Pharmaceuticals Inc., priority 1994, dated 2004)
Structures can show the parent of a compound that is named as a salt. Where two headings read alike, the source gives them in different places. Starred links: 1 amine or outer side, 2 acyl side, 3 side chain; linkers in the order of their positions; H or OH if unused. Non-standard residues stand in square brackets, D forms with d. Residues, ends and D or L forms follow the SMILES beside them. No end group written: not given here. *: point of attachment. X1 = CC(C)CN([C@@H](Cc1ccc(O)cc1)C(=O)[*:2])[*:1]; 2Nal = N[C@@H](Cc1ccc2ccccc2c1)C(=O)O; Chg = N[C@H](C(=O)O)C1CCCCC1; Tfa = O=C(C(F)(F)F)*

What was measured:
[1] = molecular target: factor Xa; details: background section; cited from earlier work
[2] = molecular target: T1, human neutrophil elastase (Homo sapiens, UniProt P08246); assay: Elastase chromogenic assay; assay type: biochemical; details: Table 2
T1 construct: purchased Athens Research and Technology, Inc; Athens Ga
T1 sequence (P08246 30-247 limits assumed): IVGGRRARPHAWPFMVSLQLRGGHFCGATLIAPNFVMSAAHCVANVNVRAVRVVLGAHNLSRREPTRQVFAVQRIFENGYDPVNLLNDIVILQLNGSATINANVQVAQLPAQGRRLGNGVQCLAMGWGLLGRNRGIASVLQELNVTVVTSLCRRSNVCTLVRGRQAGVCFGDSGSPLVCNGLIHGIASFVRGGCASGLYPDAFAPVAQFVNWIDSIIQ
Description: (§1) The ability of a compound of the invention to inhibit factor Xa, thrombin, plasmin, elastase and trypsin was assessed by determining the concentration of YIR peptide that inhibits enzyme activity by 50% (IC50). Purified enzymes were used in chromogenic assays. To determine the inhibition constant, the IC50 value was corrected for competition with substrate using the formula:
(§2) Ki=IC50×(1/{1+((substrate concentration)/substrate Km)})
Tris-Cl, pH 7.4, 300 mM NaCl, 2% (v/v) N-methyl-pyrrolidone, 0.01% (w/v) NaN3 buffer was used for this assay. The IC50 was determined as described in Example XXXVII.a., except that the substrate was succinyl-Ala-Ala-Ala-p-nitroanilide (Calbiochem-Nova Biochem Corp.; San Diego Calif.) and the enzyme was human neutrophil elastase (Athens Research and Technology, Inc.; Athens Ga.). The enzyme concentration was 75 nM and the substrate concentration was 600 μM.

[3] = molecular target: T2, human factor Xa (Homo sapiens, UniProt P00742); assay: Factor Xa chromogenic assay; assay type: biochemical
T2 construct: purchased Enzyme Research Laboratories, Inc; South Bend Ind
Description: as §1, §2
(Chen and Prusoff, Biochem. Pharmacol. 22:3099-[…] (1973), which is incorporated herein by reference).
TBS-P buffer (50 mM Tris-Cl, pH 7.8, 200 mM NaCl, 0.05% (w/v) PEG-8000, 0.02% (w/v) NaN3) was used for this assay. The IC50 was determined by combining in appropriate wells of a Costar half-area microtiter plate 25 μl human factor Xa (Enzyme Research Laboratories, Inc.; South Bend Ind.) in TBS-P; 40 μl 10% (v/v) DMSO in TBS-P (uninhibited control) or various concentrations of a peptide to be tested diluted in 10% (v/v) DMSO in TBS-P; and substrate S-2765 (Nα-benzyloxycarbonyl-D-Arg-Gly-L-Arg-p-nitroanilide; Kabi Pharmacia, Inc.; Franklin Ohio) in TBS-P.
The assays were performed by pre-incubating the peptide inhibitor plus enzyme for 10 min, then the assay was initiated by adding substrate to obtain a final volume of 100 μl. The initial velocity of chromogenic substrate hydrolysis was measured by the change in absorbance at 405 nm using a Bio-tek Instruments kinetic plate reader (Ceres UV900HDi) at 25° C. during the linear portion of the time course (usually 1-5 min after addition of substrate). The concentration of inhibitor that caused a 50% decrease in the rate of substrate hydrolysis was predicted by linear regression after plotting the relative rates of hydrolysis (compared to the uninhibited control) versus the log of the peptide concentration. The enzyme concentration was 0.5 nM and substrate concentration was 140 μM.

[4] = molecular target: T3, human plasmin (Homo sapiens, UniProt P00747); assay: Plasmin chromogenic assay; assay type: biochemical; details: Table 2
T3 construct: the enzyme was human plasmin (Kabi); purchased Kabi
Description: as §1, §2
TBS-P buffer was used for this assay. The IC50 was determined as described in Example XXXVII.a., except that the substrate was S-2251 ((D)-Val-L-Leu-L-Lys-p-nitroanilide; Kabi) and the enzyme was human plasmin (Kabi). The enzyme concentration was 5 nM and the substrate concentration was 300 uM.

[5] = Ex vivo dilute prothrombin time assay after iv administration to rats; details: rat, in vivo, time at which approximately 50% of the initial anticoagulant activity remains in plasma, read-out: T1/2 Rat ex vivo
Description: (§3) The compounds of the invention were assessed for their ability to inhibit factor Xa activity. Effectiveness of various compounds was assessed by the in vitro prothrombin time (PT) assay using pooled human donor plasma. An ex vivo assay also was used in which plasma was collected at various times after intravenous (iv) administration of a compound to rats and to rabbits or intraduodenal administration to rats and analyzed using the PT assay to determine plasma half-life. The PT assay was initiated with a thromboplastin dilution selected to obtain an extended and highly reproducible coagulation endpoint, referred to as the “dilute PT assay” as described below. Effectiveness of various compounds also was determined using an in vivo rat arteriovenous shunt model of thrombosis.
(§4) Test compound was administered iv either through the tail vein (rat) or ear vein (rabbit) following an approved protocol. One ml blood samples were removed at timed intervals after administration of a test compound from a cannulated carotid artery (rat) or auricular artery (rabbit). After centrifugation to obtain PPP, the plasma was immediately stored on ice or frozen.
(§5) For dilute prothrombin time determination, the plasma was prewarmed and assayed as described above. Percent inhibition was calculated from a thromboplastin dilution curve, which was run with each series of samples, and used to determine the time at which approximately 50% of the initial anticoagulant activity remains in the plasma (T1/2).
Various compounds also were examined for anticoagulant activity using the ex vivo dilute prothrombin time assay following iv bolus administration of various doses in rats. […] The structures of all of the compounds listed in Table 5 were confirmed by MS and AA.

[6] = system: pooled human platelet poor plasma; assay: In vitro dilute prothrombin time assay; assay type: biochemical; details: concentration giving 50% inhibition of coagulation, dilute PT
Description: The compounds of the invention were assessed for their ability to inhibit factor Xa activity. Effectiveness of various compounds was assessed by the in vitro prothrombin time (PT) assay using pooled human donor plasma. An ex vivo assay also was used in which plasma was collected at various times after intravenous (iv) administration of a compound to rats and to rabbits or intraduodenal administration to rats and analyzed using the PT assay to determine plasma half-life. The PT assay was initiated with a thromboplastin dilution selected to obtain an extended and highly reproducible coagulation endpoint, referred to as the “dilute PT assay” as described below. Effectiveness of various compounds also was determined using an in vivo rat arteriovenous shunt model of thrombosis. […]
Alternatively, the dilute prothrombin time assay was conducted using the “research” mode on an Instrumentation Laboratories (IL) ACL3000-plus automated coagulation instrument (IL; Milan, Italy). […] During the assay, a 50 μl sample (plasma separated by centrifugation) was mixed with 100 μl thromboplastin reagent and nephelometric readings were taken over 169 sec. Coagulation time was determined from the maximal rate of change of light scatter calculated by the instrument. Inhibition is expressed as percent activity as determined by comparison with the calibration curve.

[7] = Ex vivo dilute prothrombin time assay after iv administration to rabbits; details: rabbit, in vivo, time at which approximately 50% of the initial anticoagulant activity remains in plasma, read-out: T1/2 Rabbit ex vivo
Description: as §3, §4, §5

[8] = molecular target: T4, human thrombin (Homo sapiens, UniProt P00734); assay: Thrombin chromogenic assay; assay type: biochemical; details: Table 2
T4 construct: purchased Enzyme Research Laboratories, Inc; South Bend Ind
Description: as §1, §2
TBS-P buffer was used for this assay. The IC50 was determined as described in Example XXXVII.a., except that the substrate was S-2366 (L-PyroGlu-L-Pro-L-Arg-p-nitroanilide; Kabi) and the enzyme was human thrombin (Enzyme Research Laboratories, Inc.; South Bend Ind.). The enzyme concentration was 1 nM and substrate concentration was 175 μM.

[9] = molecular target: T5, bovine pancreatic trypsin (Bos taurus, UniProt P00760); assay: Trypsin chromogenic assay; assay type: biochemical; details: Table 2; * no significant inhibition at the highest concentration tested
T5 construct: purchased Sigma Type XIII, TPCK treated; host or cells: bovine pancreas
T5 sequence (P00760 24-246): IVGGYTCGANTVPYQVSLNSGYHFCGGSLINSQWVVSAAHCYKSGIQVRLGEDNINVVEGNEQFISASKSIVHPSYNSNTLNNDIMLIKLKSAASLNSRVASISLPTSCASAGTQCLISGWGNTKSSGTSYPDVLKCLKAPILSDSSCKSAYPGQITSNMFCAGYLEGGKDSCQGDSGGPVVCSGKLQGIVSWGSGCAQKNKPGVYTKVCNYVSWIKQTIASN
Description: as §1, §2
TBS-P buffer containing 10 mM CaCl2 was used for this assay. The IC50 determination was determined as described in Example XXXVII.a., except that the substrate was BAPNA (Benzoyl-L-Arg-p-nitroanilide; Sigma Chemical Co.; St. Louis Mo.) and the enzyme was bovine pancreatic trypsin (Type XIII, TPCK treated; Sigma). The enzyme concentration was 50 nM and the substrate concentration was 300 μM.

T2 sequence (P00742 235-488 limits assumed): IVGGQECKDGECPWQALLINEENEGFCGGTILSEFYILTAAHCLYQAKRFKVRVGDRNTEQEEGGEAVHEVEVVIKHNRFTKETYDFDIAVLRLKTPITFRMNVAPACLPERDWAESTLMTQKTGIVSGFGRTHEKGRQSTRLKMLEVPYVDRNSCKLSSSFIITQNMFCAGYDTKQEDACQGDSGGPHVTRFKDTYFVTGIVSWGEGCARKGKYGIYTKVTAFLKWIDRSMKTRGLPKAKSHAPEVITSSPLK
T2 sequence (P00742 41-179 partner limits assumed): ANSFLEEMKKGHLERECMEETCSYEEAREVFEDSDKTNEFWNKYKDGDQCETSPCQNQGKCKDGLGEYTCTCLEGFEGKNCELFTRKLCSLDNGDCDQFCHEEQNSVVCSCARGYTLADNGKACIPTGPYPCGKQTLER
T3 sequence (P00747 581-810 limits assumed): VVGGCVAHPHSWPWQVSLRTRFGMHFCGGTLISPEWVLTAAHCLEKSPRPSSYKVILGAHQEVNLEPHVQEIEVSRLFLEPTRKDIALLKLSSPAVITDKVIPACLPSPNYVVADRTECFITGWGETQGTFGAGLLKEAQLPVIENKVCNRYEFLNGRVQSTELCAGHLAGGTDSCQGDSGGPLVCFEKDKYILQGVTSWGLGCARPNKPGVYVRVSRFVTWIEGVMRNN
T3 sequence (P00747 97-580 partner limits assumed): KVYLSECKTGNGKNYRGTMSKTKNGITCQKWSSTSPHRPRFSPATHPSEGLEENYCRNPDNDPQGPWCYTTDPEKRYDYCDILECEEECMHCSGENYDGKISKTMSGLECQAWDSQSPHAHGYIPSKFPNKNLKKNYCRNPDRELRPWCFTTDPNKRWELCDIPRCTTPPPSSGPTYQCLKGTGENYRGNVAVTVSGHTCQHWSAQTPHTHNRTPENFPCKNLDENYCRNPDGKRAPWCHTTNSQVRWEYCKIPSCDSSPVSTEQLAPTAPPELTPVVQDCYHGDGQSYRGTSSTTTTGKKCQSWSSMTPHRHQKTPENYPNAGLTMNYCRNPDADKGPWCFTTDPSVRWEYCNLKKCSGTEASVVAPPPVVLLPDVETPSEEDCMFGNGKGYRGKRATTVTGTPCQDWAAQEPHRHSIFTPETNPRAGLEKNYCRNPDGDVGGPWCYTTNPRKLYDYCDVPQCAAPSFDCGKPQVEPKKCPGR

Row | Molecule | half-life [5] | half-life [7] | Ki [1] | also measured
1 | N=C(N)c1ccc(C=C2CCCCC(=Cc3ccc(C(=N)N)cc3)C2=O)cc1 [2,7-bis-(4-amidinobenzylidene)-cycloheptanone, reference compound] |  |  | ~20 nM | 
2 | CC[C@H](C)[C@H](NC(=O)[C@H](Cc1ccc(O)cc1)N(CC(C)C)C(C)=O)C(=O)N[C@@H](CCCNC(=N)N)C(=O)N[C@@H](CC(C)C)C(=O)N1CCC[C@H]1C(N)=O [Ac-(iBu)Y-I-R-L-P, Ac-(iBu)Tyr-Ile-Arg-Leu-Pro-NH2] (Ac-[X1]IRLP-NH2) |  |  |  | Ki [2]: > 100000 nM; Ki ([3]; Example XXXVI, read-out: Ki (inhibition of factor Xa activity)): 40 nM; Ki [4]: > 200000 nM
3 | CC(=O)N[C@@H](Cc1ccc2ccccc2c1)C(=O)N[C@H](C(=O)N[C@@H](CCCNC(=N)N)C(=O)N[C@@H](CC(C)C)C(=O)N1CCC[C@H]1C(N)=O)C1CCCCC1 [Ac—Nal(2)—Chg—R—L—P—NH2, Ac-Nal(2)-Chg-Arg-Leu-Pro-NH2] (Ac-[2Nal][Chg]RLP-NH2) | 6 min | 5 min |  | EC50 [6]: 140 nM
4 | N-alpha-tosyl-Gly-p-amidinophenylalanine methyl ester [TENSTOP, reference compound] |  |  | ~800 nM | Ki [2]: > 200000 nM; Ki ([3]; Table 2, read-out: Ki Xa): 2000 nM; Ki [8]: 2000 nM; Ki [4]: > 200000 nM
5 | TAP: tick anticoagulant peptide, isolated from the tick Ornithodoros moubata, 60 amino acids (YNRLCIKPRDWIDECDSNEGGERAYFRNGKGGCDSFWICPEDHTGADYYSSYRDCFNACI; ends and bridges not checked; cysteine pairing not given here; UniProt P17726 1-60, looked up) |  |  | ~0.5 nM | 
6 | YIRLAAET [Ac-Y-I-R-L-A-A-E-T, Ac-Y-I-R-L-A-A-E-T (SEQ ID NO:9)] |  |  |  | Ki ([3]; Table 2, read-out: Ki Xa): 1500 nM; Ki [9]: > 200000 nM

Further lines, with some results ahead:

Row | half-life [5] | half-life [7] | Molecule | Ki [1] | also measured
7 | 5 min | 5 min | CC(=O)N[C@@H](Cc1ccc(O)cc1)C(=O)N[C@H](C(=O)N[C@@H](CCCNC(=N)N)C(=O)N[C@@H](CC(C)C)C(=O)N1CCC[C@H]1C(N)=O)C1CCCCC1 [Ac—Y—Chg—R—L—P—NH2, Ac-Tyr-Chg-Arg-Leu-Pro-NH2] (Ac-Y[Chg]RLP-NH2) |  | EC50 [6]: 225 nM
8 | 5 min | 5 min | CC(=O)N[C@@H](Cc1ccc(O)cc1)C(=O)N[C@H](C(=O)N[C@@H](CCCNC(=N)N)C(N)=O)C1CCCCC1 [Ac—Y—Chg—R—NH2] (Ac-Tyr-[Chg]-Arg-NH2) |  | 
9 | 15 min | 10 min | CC(C)C[C@H](NC(=O)[C@H](CCCNC(=N)N)NC(=O)[C@@H](NC(=O)[C@H](Cc1ccc(O)cc1)N(CC(C)C)C(=O)C(F)(F)F)C1CCCCC1)C(=O)N1CCC[C@H]1C(N)=O [Tfa—(iBu)Y—Chg—R—L—P—NH2, Tfa-(iBu)Tyr-Chg-Arg-Leu-Pro-NH2] (Tfa-[X1][Chg]RLP-NH2) |  | 
